Measured values taken from ChEMBL document CHEMBL1201862, “PubChem BioAssay data set” (2004).
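A five-concentration, 48-hour dose response in 96-well plates underlies each endpoint, interpolated linearly between surrounding concentrations. Abbreviation: GI50, concentration required for 50% inhibition of growth.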 Activity calls are given as the source filed them. Cut-off read from the data, not from the text of the source: active = GI50 up to about 1.1 µM and inactive = higher.

How the values were obtained:
Assay in all cases: inhibition of tumour cell growth, NCI panel, 48 h
[1] = system: KM12
[2] = system: COLO 205
[3] = system: SF-268
[4] = system: NCI-H23
[5] = system: M14
[6] = system: HT-29
[7] = system: SF-539
[8] = system: HCT-116
[9] = system: NCI-H226
[10] = system: Malme-3M
[11] = system: LOX IMVI
[12] = system: HOP-92
[13] = system: OVCAR-5
[14] = system: A549
[15] = system: CAKI-1

Measured: GI50

COC(=O)C(/C(=N/N)C(=O)Nc1cc(Cl)ccc1Cl)c1nc2ccc([N+](=O)[O-])cc2nc1O (stereo unspecified)
inactive: [1] > 100 µM | [2] > 100 µM | [3] 92.3 µM | [4] > 100 µM | [5] 72.3 µM | [6] > 100 µM | [7] 93.3 µM | [8] > 100 µM | [9] > 100 µM | [10] > 100 µM | [11] > 100 µM | [12] 30.7 µM | [13] > 100 µM | [14] > 100 µM

N#Cc1ccc(/C=N/C23CC4CC(CC(C4)C2)C3)cc1
inactive: [1] > 100 µM | [2] > 100 µM | [3] > 100 µM | [4] > 100 µM | [5] > 100 µM | [6] 63.1 µM | [7] > 100 µM | [8] 39.4 µM | [9] > 100 µM | [10] > 100 µM | [11] 76.6 µM | [12] 83.9 µM | [13] > 100 µM | [14] > 100 µM | [15] > 100 µM

CC(=O)C1C(=O)N(C(C)C)C[C@@H]2CCC(=O)C[C@H]12 (stereo partly specified)
inactive: [1] > 100 µM | [2] > 100 µM | [3] > 100 µM | [4] > 100 µM | [5] > 100 µM | [6] > 100 µM | [7] > 100 µM | [8] > 100 µM | [10] > 100 µM | [11] > 100 µM | [12] > 100 µM | [14] > 100 µM | [15] > 100 µM

CCN(N=O)C1C2(CCCC2)NC(=O)C12CCCC2 (stereo unspecified)
inactive: [1] > 100 µM | [3] > 100 µM | [4] > 100 µM | [5] > 100 µM | [6] > 100 µM | [7] > 100 µM | [8] > 100 µM | [9] > 100 µM | [10] > 100 µM | [11] > 100 µM | [13] > 100 µM | [14] > 100 µM

CC(C)C1CCC/C=C/C=C/C=C/C=C/C(OC2OC(C)C(O)C(N)C2O)CC2OC(O)(CC(O)CC(O)C(O)CCC(=O)O1)CC(O)C2C(=O)O (stereo unspecified)
inactive: [2] > 52.5 µM | [3] > 52.5 µM | [5] > 52.5 µM | [6] > 52.5 µM | [7] > 52.5 µM | [8] > 52.5 µM | [10] > 52.5 µM | [12] > 52.5 µM | [14] > 52.5 µM | [15] > 52.5 µM

C=CNC(=O)NC(=O)CSc1nc(=O)c(-c2ccccc2NC(=O)C(F)(F)F)n[nH]1
inactive: [1] > 100 µM | [2] 47.5 µM | [3] 37.4 µM | [4] 34.8 µM | [5] 23.4 µM | [6] > 100 µM | [7] 74.6 µM | [8] > 100 µM | [9] 10.7 µM | [10] 15.5 µM | [11] > 100 µM | [12] 21.6 µM | [13] > 100 µM | [14] > 100 µM | [15] > 100 µM

Cc1c2n(c(=O)[nH]c1=O)C1OC(CO)C(O2)C1O (stereo unspecified)
inactive: [1] > 100 µM | [2] > 100 µM | [3] > 100 µM | [4] > 100 µM | [6] > 100 µM | [7] > 100 µM | [8] > 100 µM | [9] > 100 µM | [11] > 100 µM | [12] > 100 µM | [14] > 100 µM | [15] > 100 µM

CCc1c(Cc2[nH]c(Cc3[nH]c(C=O)c(C)c3CC)c(CC)c2CC)[nH]c(C=O)c1C
inactive: [1] > 10 µM | [2] > 100 µM | [3] > 100 µM | [5] > 100 µM | [6] > 100 µM | [7] > 100 µM | [8] > 100 µM | [9] > 100 µM | [10] > 100 µM | [11] > 100 µM | [14] > 100 µM | [15] > 100 µM

O=C(O)c1ccccc1/N=N/c1ccc2oc(=O)c(C(=O)Nc3ccccc3)cc2c1
inactive: [1] 31.8 µM | [2] 30.3 µM | [4] 34 µM | [5] 47.9 µM | [6] 38.4 µM | [7] 31.3 µM | [8] 29.6 µM | [9] 25.7 µM | [10] 23.7 µM | [11] 35.9 µM | [14] 40.8 µM

Cc1c(C(=O)/C=C/c2c(Cl)cccc2Cl)c(=O)n(-c2ccccc2)n1C
inactive: [1] 15.9 µM | [2] 13.9 µM | [3] 24.1 µM | [6] 18 µM | [7] > 10 µM | [8] 8.53 µM | [9] 21.3 µM | [10] 53.8 µM | [11] 11.8 µM | [12] 17.6 µM | [13] 71.8 µM | [14] 15.1 µM | [15] 19 µM

CCCN(CCCN)/[N+]([O-])=N\O
inactive: [1] > 100 µM | [2] > 100 µM | [3] > 100 µM | [4] > 100 µM | [5] > 100 µM | [6] > 100 µM | [7] > 100 µM | [8] > 100 µM | [9] > 100 µM | [10] > 100 µM | [12] > 100 µM | [13] > 100 µM | [14] > 100 µM | [15] > 100 µM

C[S+](C)CCOC(=O)C(=[N+]=[N-])c1ccc([N+](=O)[O-])cc1
inactive: [1] > 100 µM | [2] > 100 µM | [3] > 100 µM | [4] > 100 µM | [5] > 100 µM | [6] > 100 µM | [7] > 100 µM | [8] > 100 µM | [9] > 100 µM | [10] > 100 µM | [13] > 100 µM | [14] > 100 µM | [15] > 100 µM

COC1(OC)C(N(C)C)=C(Cl)C(=O)/C1=C/C=O
inactive: [2] > 100 µM | [3] > 100 µM | [4] > 100 µM | [5] > 100 µM | [6] > 100 µM | [8] > 100 µM | [9] > 100 µM | [10] > 100 µM | [11] 84.7 µM | [12] 47 µM | [13] > 100 µM | [14] > 100 µM | [15] > 100 µM

CC(C)(C)c1cc(C(P(=O)(O)O)P(=O)(O)O)cc(C(C)(C)C)c1O
inactive: [1] > 100 µM | [3] > 100 µM | [4] > 100 µM | [5] > 100 µM | [6] > 100 µM | [7] > 100 µM | [8] > 100 µM | [9] > 100 µM | [10] > 10 µM | [11] > 100 µM | [12] > 100 µM | [13] > 100 µM | [14] > 100 µM | [15] > 100 µM

Nc1ccn(C2(CO)C=C(CO)C(O)C2O)c(=O)n1 (stereo unspecified)
inactive: [1] > 25.8 µM | [2] > 25.8 µM | [3] > 25.8 µM | [5] > 25.8 µM | [7] > 25.8 µM | [8] > 25.8 µM | [9] > 25.8 µM | [10] > 25.8 µM | [14] > 25.8 µM | [15] > 25.8 µM
